{"source": "patent US20220233652A1", "about": "“Pharmaceutical Compositions Comprising Integration-Promoting Peptides” (priority 2018, published 2022)", "key": {"[1]": {"assay": "Phase I/IIa clinical trial: safety and tolerability", "format": "in vivo, human", "conditions": "HIV patients, SC twice weekly, 1% poloxamer 188 and 9% lactose formulation; preliminary results", "excerpt": "Patients are monitored for adverse events (AE) of the INS peptide such as rash, acute allergic reaction, bronchospasm, respiratory distress, and acute vascular leak syndrome. If a severe administration related reaction occurs, the drug administration is stopped. Blood chemistry, hematology, coagulation, and urinalysis are repeated on Days 1, 4, 8, 11, 15, 18, 22, 25 at the clinic visits.\nThe primary safety endpoint is the frequency, severity, and duration of side effects. Number of participants with treatment-related adverse events as assessed by CTCAE v4.03, are evaluated though study completion. Main adverse events evaluation is based on DADS Toxicity criteria (Division of AIDS DADS Table for Grading the Severity of Adult and Paediatric Adverse Events, Corrected Version 2.1): • Viral load • Lymphopenia/Neutropenia • Immuno-reaction over reaction/cytokine storm • Infection surrounding the administration site • Liver function (lab tests) • Kidney function (lab tests)\nIncidence of withdrawal (drop-out rate) due to side effects is evaluated throughout the study."}, "[2]": {"assay": "Preliminary solubility test of INS peptide salts in co-solvents and water", "format": "physicochemical", "conditions": "for solubility: read-out: Approximate Solubility; for Solubility in PBS: physiological conditions", "protocol": "Solubility of different INS peptide salts was measured in several co-solvents and in water."}, "[3]": {"tested_on": "1975 human lung cancer cells", "assay": "Lung cancer tumor mice model", "format": "in vivo, athymic nude mice", "conditions": "INS HCL and tumor-targeted lentiviral particles; lung cancer and pancreatic cancer models", "protocol": "Two models of cancer were generated: lung cancer and pancreatic cancer. About 5×10^6 of 1975 human lung cancer cells per 0.1 ml PBS per mouse were injected to male 7 weeks old athymic nude mice (n=30). The cells were injected, subcutaneously at one site on the back of the mice. About 5×10^6 PANC-1 human pancreatic cancer cells per 0.1 ml PBS per mouse were injected to male 7 weeks old athymic nude mice (n=22). The cells were injected, subcutaneously at one site on the back of the mice. When tumors were palpable (˜0.3-0.5 cm^3), the mice were randomly divided into three groups (Table 27) and the viruses and/or peptides were injected, twice a week for two weeks.\nThe first day of the study was defined as ‘Day 1’. The animals were administrated IP with either Vehicle (PBS or Formulation), lentiviral particles and SC with test items according to Table 27 on days 1, 4, 8 and 11. Body weight and tumor volume were checked on days 3, 7, 11, 14 and 17 (the latter was measured with a caliper). At the end of the experiment, on day 17, the mice were anesthetized and then sacrificed, and the tumors were removed, as well as lung, spleen, kidney and liver."}, "[4]": {"assay": "Stability study of lyophilized formulation after reconstitution", "format": "physicochemical", "protocol": "To obtain an isotonic solution having desired osmolality of about 300-330 mOsm/kg, the poloxamer percentage was reduced to 0.8% and the lactose percentage was reduced to 9.5%. The solution formulation F45 was prepared in a 40 ml clear glass vial according to Table 20. The pH was adjusted by NH4OH. […]\nThe physical and chemical stability of lyophilized powder obtained in Example 10 was investigated. The lyophilized powder was stored at −20° C. […] Formulations before filtration were used as a control (initial state) at each time point. […] At the time point: 0 h, 24 hours and 7 days appearance, pH and osmolarity were tested and the solutions were analyzed by HPLC for the presence of degradation. The recovery percent after filtration was also calculated. To investigate short-term in-use stability, additional 218 mg of lyophilized material was reconstituted, and the solution was stored at room temperature for 4 hours. […]"}, "[5]": {"assay": "Stability of formulations F4, F7 and F10 (HPLC)", "format": "physicochemical", "conditions": "F4, F7 and F10, ambient temperature and 4° C., 24 hours", "protocol": "To investigate the stability of formulation F4, F7 and F10 they were stored at ambient temperature and at 4° C. Samples were taken out at time zero (initial) and after 24 hours and diluted 10 times with water prior to HPLC analysis. The results were compared to the standard peptide 0.5 mg/ml in water (STD)."}}, "note": "Read-outs that look alike come from different tables or passages of the source. No end group written: not given here."}
{"sequence": "WTAVQMAVFIHNFKRK [INS HCl]", "values": [{"measurement": "Safety and tolerability", "setting": "[1]", "value": "safe and well tolerable"}, {"measurement": "solubility", "setting": "[2]; DMSO", "value": "≤ 10000", "unit": "µg/mL"}, {"measurement": "Appearance in H2O", "setting": "[2]; H2O", "value": "slightly opalescence"}, {"measurement": "pH in H2O", "setting": "[2]; H2O, 10 mg/ml", "value": 2.60}, {"measurement": "Approximate Solubility", "setting": "[2]; PBS", "value": "Not soluble"}, {"measurement": "Solubility in PBS", "setting": "[2]; PBS", "value": "practically insoluble"}, {"measurement": "Solubility in PEG400", "setting": "[2]; PEG400", "value": "poor solubility"}, {"measurement": "solubility", "setting": "[2]; PEG400", "value": "< 5000", "unit": "µg/mL"}, {"measurement": "Appearance in propylene glycol", "setting": "[2]; Propylene glycol (PG), 5mg/ml", "value": "clear solution"}, {"measurement": "Solubility in ethanol", "setting": "[2]; ethanol", "value": "poor solubility"}, {"measurement": "solubility", "setting": "[2]; ethanol", "value": "< 5000", "unit": "µg/mL"}, {"measurement": "solubility", "setting": "[2]; propylene glycol (PG)", "value": "5000 to 10000", "unit": "µg/mL"}, {"measurement": "Solubility in PG", "setting": "[2]; propylene glycol, a clear solution was obtained", "value": "moderate solubility"}, {"measurement": "Appearance of solution in water", "setting": "[2]; water", "value": "solution with opalescence"}, {"measurement": "pH of solution in water", "setting": "[2]; water", "value": 2.6}, {"measurement": "solubility", "setting": "[2]; water, pH 2.6, H2O", "value": "> 10000", "unit": "µg/mL"}, {"measurement": "Decrease in growth of tumors", "setting": "[3]", "value": "up to 50%"}, {"measurement": "Peptide adsorbed to PES filters", "setting": "[4]; PES filters", "value": "about 30%"}, {"measurement": "Time stable at room temperature after reconstitution", "setting": "[4]; room temperature, no significant difference in comparison to control", "value": "at least 4 hours"}, {"measurement": "Stability in formulations", "setting": "[5]", "value": "high stability in all formulations"}]}
{"sequence": "WTAVQMAVFIHNFKRK [INS TFA]", "values": [{"measurement": "Concentration dissolved in DMSO", "setting": "[2]; DMSO", "value": "≤ 10000", "unit": "µg/mL"}, {"measurement": "Behaviour upon dilution in PBS", "setting": "[2]; solution in water or DMSO diluted in PBS", "value": "precipitated"}, {"measurement": "Concentration dissolved in water", "setting": "[2]; water", "value": "≤ 10000", "unit": "µg/mL"}]}
{"sequence": "WTAVQMAVFIHNFKRK [INS acetate]", "values": [{"measurement": "Solubility in DMSO", "setting": "[2]; DMSO", "value": "completely insoluble"}, {"measurement": "Solubility in PBS", "setting": "[2]; PBS", "value": "completely insoluble"}, {"measurement": "pH above which the dissolved salt precipitated", "setting": "[2]; dissolved in low pH, pH raised", "value": "above 4"}, {"measurement": "Solubility in water", "setting": "[2]; water", "value": "soluble"}]}
